Test results taken from the supplement of paper PMC10307832.

Experiments:
Assay in all cases: relative viability (nuclei count vs DMSO), 5 days (fraction); higher = more cells survive
[1] = compound: CC1CC(=O)N(C2=CN=C(N=C2N1C3CCCC3)NC4=C(C=C(C=C4)C(=O)NC5CCN(CC5)C)OC)C [NPK76-II-72-1] + CC(=O)Nc1cccc(-n2c(=O)n(C3CC3)c(=O)c3c(Nc4ccc(I)cc4F)n(C)c(=O)c(C)c32)c1 [Trametinib] (partner 0.02 µM)
Outline: (§1)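 Relative viability was taken as the ratio of nuclei in treated wells to nuclei in vehicle wells. Lung cancer cell lines in 1536-well plates received compounds by pin tool one day after seeding, either one drug alone or a fixed anchor-drug dose plus five library-drug doses (not always all listed) in √10 steps. Nuclei were counted on 4× images after 5 days of treatment, and values are medians of duplicate plates.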

[2] = compound: CC1CC(=O)N(C2=CN=C(N=C2N1C3CCCC3)NC4=C(C=C(C=C4)C(=O)NC5CCN(CC5)C)OC)C [NPK76-II-72-1] + CC1(C)CCC(c2ccc(Cl)cc2)=C(CN2CCN(c3ccc(C(=O)NS(=O)(=O)c4ccc(N[C@H](CCN5CCOCC5)CSc5ccccc5)c(S(=O)(=O)C(F)(F)F)c4)cc3)CC2)C1 [Navitoclax] (partner 0.5 µM)
Outline: as §1

[3] = compound: CC1CC(=O)N(C2=CN=C(N=C2N1C3CCCC3)NC4=C(C=C(C=C4)C(=O)NC5CCN(CC5)C)OC)C [NPK76-II-72-1] + C[C@]1(O)C[C@@H](c2nc(-c3ccc4ccc(-c5ccccc5)nc4c3)c3c(N)nccn32)C1 [Linsitinib] (partner 1 µM)
Outline: as §1

[4] = compound: CC1CC(=O)N(C2=CN=C(N=C2N1C3CCCC3)NC4=C(C=C(C=C4)C(=O)NC5CCN(CC5)C)OC)C [NPK76-II-72-1] + CC(=O)c1c(C)c2cnc(Nc3ccc(N4CCNCC4)cn3)nc2n(C2CCCC2)c1=O [Palbociclib] (partner 0.5 µM)
Outline: as §1

Cell Line	relative viability ([1]; first compound 0.01 µM)	relative viability ([1]; first compound 0.03162 µM)	relative viability ([1]; first compound 0.1 µM)	relative viability ([1]; first compound 0.3162 µM)	relative viability ([1]; first compound 1 µM)	relative viability ([2]; first compound 0.01 µM)	relative viability ([2]; first compound 0.03162 µM)	relative viability ([2]; first compound 0.1 µM)	relative viability ([2]; first compound 0.3162 µM)	relative viability ([2]; first compound 1 µM)	relative viability ([3]; first compound 0.01 µM)	relative viability ([3]; first compound 0.03162 µM)	relative viability ([3]; first compound 0.1 µM)	relative viability ([3]; first compound 0.3162 µM)	relative viability ([3]; first compound 1 µM)	relative viability ([4]; first compound 0.01 µM)	relative viability ([4]; first compound 0.03162 µM)	relative viability ([4]; first compound 0.1 µM)	relative viability ([4]; first compound 0.3162 µM)	relative viability ([4]; first compound 1 µM)
HCC-366	0.336	0.403	0.372	0.308	0.424	1.09	1.11	1.07	1.13	0.978	0.54	0.688	0.704	0.707	0.777	0.386	0.438	0.386	0.363	0.458
NCI-H727	0.352	0.392	0.341	0.394	0.395	0.372	0.397	0.572	0.494	0.652	0.233	0.259	0.27	0.287	0.331	0.705	0.671	0.594	0.621	0.712
LU99A	0.591	0.542	0.596	0.536	0.602	0.804	0.766	0.785	0.889	0.692	0.57	0.522	0.584	0.479	0.518	0.404	0.437	0.425	0.393	0.443
NCI-H647	0.443	0.436	0.418	0.527	0.54	0.986	1.05	1.23	1.11	1.2	1.2	1.28	–	1.07	1.14	0.31	0.351	0.424	0.362	0.506
HCC-78	0.711	0.704	0.575	0.828	0.742	–	0.846	0.719	–	0.732	–	0.529	0.487	–	0.516	0.423	0.44	0.425	0.385	0.502
NCI-H1755	0.756	0.752	0.75	0.752	0.799	0.942	1.01	0.953	0.989	1.02	0.972	1	0.947	1.01	0.985	0.453	0.441	0.464	0.453	0.479
NCI-H3122	0.186	0.216	0.242	0.261	0.236	1.01	0.988	1	1.05	1.02	0.945	1.03	1.09	1.03	1.05	0.183	0.18	0.179	0.194	0.213
PC-14	0.741	0.848	0.698	0.678	0.798	1	1.06	1.03	0.948	1.07	0.927	1.1	0.938	0.874	1.06	0.514	0.593	0.438	0.505	0.545
NCI-H2347	0.353	0.283	0.296	0.302	0.26	0.761	0.698	0.728	0.789	0.868	0.925	1.03	1	0.896	0.983	0.388	0.425	0.389	0.433	0.465
NCI-H2228	0.348	0.63	0.538	0.285	0.571	0.509	1.06	1.14	0.794	0.932	0.428	0.572	0.763	0.66	0.736	0.759	0.912	0.729	0.6	0.747
NCI-H1793	–	0.389	0.408	0.511	0.401	0.399	0.642	0.477	0.302	0.41	0.771	0.962	0.971	0.495	0.742	–	0.324	0.352	0.256	0.366
EKVX	0.359	0.32	0.367	–	0.384	0.909	1.03	0.865	0.648	1.13	0.935	1.07	0.985	0.764	1.18	0.334	0.401	0.368	–	0.464
HOP-62	0.384	0.415	0.337	0.428	0.37	0.973	1.12	0.947	1.06	0.954	0.908	1.05	0.922	1.05	0.89	0.397	0.458	0.462	0.438	0.511
NCI-H2126	0.541	0.567	0.563	0.537	0.598	0.82	0.857	0.874	0.799	0.881	0.756	0.777	0.701	0.671	0.752	0.338	0.348	0.331	0.347	0.345
SW 1573	0.471	0.511	0.633	0.483	0.658	1.03	0.973	0.812	0.948	0.988	0.808	0.794	0.721	0.728	0.681	0.35	0.486	0.399	0.371	0.387
EPLC-272H	0.257	0.246	0.252	0.296	0.284	1.06	0.97	1.12	1.09	1.35	0.973	1.15	1.28	1.05	1.18	0.332	0.339	0.335	0.329	0.369
